Laboratory results as given in US8926998B2, “Polycarbonates bearing pendant primary amines for medical applications” (International Business Machines Corporation, priority 2012, dated 2015).

Tested on: S. aureus
Experiment: Minimal inhibitory concentration (MIC), broth microdilution
Assay type: cell-based, Staphylococcus aureus
Settings: free drug
Protocol: Bacteria (S. aureus, S. epidermis and E. coli) and Yeast (C. albicans) obtained from ATCC were reconstituted from its lyophilized form according to the manufacturer's protocol. Bacterial samples were cultured in tryptic soy broth (T-SB) or Mueller Hinton broth (M-HB) solution at 37° C., and yeast cells were cultured in YMB at room temperature under constant shaking of 100 rpm. The MICs of the polymers were measured using the broth microdilution method. Briefly, 100 microliters of the respect broth medium containing a polymer at various concentrations (15.6, 31.3, 62.5, 125, 250, 500, 1000, 2000 mg/L) was placed into each well of a 96-well tissue culture plate. An equal volume of microbial suspension (3×10^5 CFU/mL) was added into each well. Prior to mixing, the microbial sample was first inoculated overnight to enter its log growth phase. The concentration of microbial solution was adjusted to give an initial optical density (O.D.) reading of approximately 0.07 at 600 nm wavelength on a microplate reader (TECAN, Switzerland), which corresponds to the concentration of Mc Farland 1 solution (3×10^8 CFU/mL), the microbial solution was further diluted by 1000 times to achieve an initial loading of 3×10^5 CFU/mL. The bacterial samples were kept in an incubator at 37° C. for 18 hours, while the Yeast samples were kept at room temperature for 42 hours under constant shaking of 100 rpm. […]

Structure (SMILES): CC1(C)S[C@@H]2[C@H](NC(=O)Cc3ccccc3)C(=O)N2[C@H]1C(=O)O [PenG, Penicillin G]
- MIC S. aureus: about 0.01 mg/L
